Target: T1, histone deacetylase 3 (HDAC3) (Homo sapiens, UniProt O15379)
T1 construct: full length human HDAC3 (NP_003874.2) with a C-terminal FLAG tag, in complex with human NCOR2 amino acids 395–489 with an N-terminal 6xHis tag; with NCOR2 (SMRT) amino acids 395–489
Assay: Fluor de Lys fluorescent deacetylase assay, fractional activity vs [10-HDA]
Format: biochemical

T1 sequence (O15379 whole entry, the tested form may be a part): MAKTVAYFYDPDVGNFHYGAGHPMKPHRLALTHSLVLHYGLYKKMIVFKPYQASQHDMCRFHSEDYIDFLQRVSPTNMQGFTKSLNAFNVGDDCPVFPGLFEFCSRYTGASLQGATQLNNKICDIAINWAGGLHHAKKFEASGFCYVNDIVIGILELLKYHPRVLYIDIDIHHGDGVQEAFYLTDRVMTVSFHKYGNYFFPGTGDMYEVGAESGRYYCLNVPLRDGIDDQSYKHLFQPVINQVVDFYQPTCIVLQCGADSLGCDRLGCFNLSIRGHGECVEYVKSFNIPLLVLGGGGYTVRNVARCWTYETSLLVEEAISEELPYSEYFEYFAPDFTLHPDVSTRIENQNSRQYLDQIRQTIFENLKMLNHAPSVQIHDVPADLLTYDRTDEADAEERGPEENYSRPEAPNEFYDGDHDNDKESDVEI
T1 sequence (Q9Y618 395-489 partner): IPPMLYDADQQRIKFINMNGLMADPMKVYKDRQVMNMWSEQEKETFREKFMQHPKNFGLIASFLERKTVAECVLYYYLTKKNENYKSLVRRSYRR

Ki: 5.32 mM
Structure (SMILES): O=C(O)/C=C/CCCCCCCO [10-HDA, 10-hydroxy-2E-decenoic acid]

Source: publication PMC6287826, “Regulation of histone deacetylase 3 by metal cations and 10-hydroxy-2E-decenoic acid: Possible epigenetic mechanisms of queen-worker bee differentiation” (PLoS ONE, 2018)
